Test system: 485176-168-R4-J1-PDC spheroids with HUVEC/MSC, viability
Assay: Anticancer human tumor 485176-168-R4-J1-PDC patient-derived pancreatic adenocarcinoma cell line growth inhibition [GQUAD]
Conditions: for IC50: curve of first compound; for viability, T/C: stronger effect = lower value; active means viability on the fitted dose curve at most 10% of control; inactive means the rest
Summary of the method: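 Multi-cell-type spheroids of tumor cells with HUVEC and mesenchymal stem cells, treated with drug combinations. Concentrations descend in half-log steps from near clinical Cmax, or from 10 microM where Cmax is unknown; viability read-out.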

[1] = second compound 0.0316 µM, first compound 0.0316 µM
[2] = second compound 0.0316 µM, first compound 0.316 µM
[3] = second compound 0.1 µM, first compound 0.0316 µM
[4] = second compound 0.1 µM, first compound 0.316 µM
[5] = second compound 0.316 µM, first compound 0.0316 µM
[6] = second compound 0.316 µM, first compound 0.316 µM
[7] = second compound 1 µM, first compound 0.0316 µM
[8] = second compound 1 µM, first compound 0.316 µM
[9] = second compound 3.16 µM, first compound 0.0316 µM
[10] = second compound 3.16 µM, first compound 0.316 µM
[11] = second compound 10 µM, first compound 0.0316 µM
[12] = second compound 10 µM, first compound 0.316 µM
[13] = second compound 0.0316 µM, first compound 0.1 µM
[14] = second compound 0.0316 µM, first compound 1 µM
[15] = second compound 0.0316 µM, first compound 3.16 µM
[16] = second compound 0.0316 µM, first compound 10 µM
[17] = second compound 0.1 µM, first compound 0.1 µM
[18] = second compound 0.1 µM, first compound 1 µM
[19] = second compound 0.1 µM, first compound 3.16 µM
[20] = second compound 0.1 µM, first compound 10 µM
[21] = second compound 0.316 µM, first compound 0.1 µM
[22] = second compound 0.316 µM, first compound 1 µM
[23] = second compound 0.316 µM, first compound 3.16 µM
[24] = second compound 0.316 µM, first compound 10 µM
[25] = second compound 1 µM, first compound 0.1 µM
[26] = second compound 1 µM, first compound 1 µM
[27] = second compound 1 µM, first compound 3.16 µM
[28] = second compound 1 µM, first compound 10 µM
[29] = second compound 3.16 µM, first compound 0.1 µM
[30] = second compound 3.16 µM, first compound 1 µM
[31] = second compound 3.16 µM, first compound 3.16 µM
[32] = second compound 3.16 µM, first compound 10 µM
[33] = second compound 10 µM, first compound 0.1 µM
[34] = second compound 10 µM, first compound 1 µM
[35] = second compound 10 µM, first compound 3.16 µM
[36] = second compound 10 µM, first compound 10 µM
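Further: spheroids exposed to compounds for seven days before readout.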
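Wherever viability, T/C is given: percent viability relative to DMSO vehicle control wells as 100%.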

Cc1[nH]c2ccccc2c1CCNCc1ccc(/C=C/C(=O)NO)cc1 + Cc1[nH]c2ccc(F)cc2c1-c1nc2c3cccnc3c3ncccc3c2[nH]1
158 nM: IC50 (second compound 0.0316 µM)
inactive: viability, T/C (second compound 0.0316 µM, first compound 0.000999 µM) 99.1% | viability, T/C (second compound 0.0316 µM, first compound 0.00316 µM) 106% | viability, T/C (second compound 0.0316 µM, first compound 0.00999 µM) 96.3% | viability, T/C [1] 97% | viability, T/C (second compound 0.0316 µM, first compound 0.0999 µM) 77.1% | viability, T/C (second compound 0.1 µM, first compound 0.000999 µM) 105% | viability, T/C (second compound 0.1 µM, first compound 0.00316 µM) 104% | viability, T/C (second compound 0.1 µM, first compound 0.00999 µM) 89.5% | viability, T/C [3] 89% | viability, T/C (second compound 0.1 µM, first compound 0.0999 µM) 78.7% | viability, T/C [4] 15.7% | viability, T/C (second compound 0.316 µM, first compound 0.000999 µM) 103% | viability, T/C (second compound 0.316 µM, first compound 0.00316 µM) 89.9% | viability, T/C (second compound 0.316 µM, first compound 0.00999 µM) 80% | viability, T/C [5] 82.4% | viability, T/C (second compound 0.316 µM, first compound 0.0999 µM) 81.3% | viability, T/C [6] 15.3% | viability, T/C (second compound 1 µM, first compound 0.000999 µM) 82.4% | viability, T/C (second compound 1 µM, first compound 0.00316 µM) 89.7% | viability, T/C (second compound 1 µM, first compound 0.00999 µM) 95% | viability, T/C [7] 89.3% | viability, T/C (second compound 1 µM, first compound 0.0999 µM) 72.8% | viability, T/C [8] 19.7% | viability, T/C (second compound 3.16 µM, first compound 0.000999 µM) 79.5% | viability, T/C (second compound 3.16 µM, first compound 0.00316 µM) 93% | viability, T/C (second compound 3.16 µM, first compound 0.00999 µM) 80% | viability, T/C [9] 74.3% | viability, T/C (second compound 3.16 µM, first compound 0.0999 µM) 61% | viability, T/C [10] 15.5% | viability, T/C (second compound 10 µM, first compound 0.000999 µM) 85.8% | viability, T/C (second compound 10 µM, first compound 0.00316 µM) 93.7% | viability, T/C (second compound 10 µM, first compound 0.00999 µM) 88.6% | viability, T/C [11] 68.4% | viability, T/C (second compound 10 µM, first compound 0.0999 µM) 73.2% | viability, T/C [12] 18.8%
170 nM: IC50 (second compound 0.316 µM)
active: viability, T/C [2] 9.63%
164 nM: IC50 (second compound 1 µM)
163 nM: IC50 (second compound 0.1 µM)
129 nM: IC50 (second compound 3.16 µM)
150 nM: IC50 (second compound 10 µM)

O=C(NO)c1cnc(N2CCN(S(=O)(=O)c3ccc4ccccc4c3)CC2)nc1 + Cc1[nH]c2ccc(F)cc2c1-c1nc2c3cccnc3c3ncccc3c2[nH]1
active: viability, T/C [15] 0.24% | viability, T/C [16] 0.23% | viability, T/C [19] 0.3% | viability, T/C [20] 0.19% | viability, T/C [24] 0.18% | viability, T/C [27] 0.32% | viability, T/C [28] 0.18% | viability, T/C [31] 0.29% | viability, T/C [32] 0.21% | viability, T/C [35] 0.27% | viability, T/C [36] 0.37%
1020 nM: IC50 (second compound 10 µM)
1030 nM: IC50 (second compound 3.16 µM)
511 nM: IC50 (second compound 0.0316 µM)
597 nM: IC50 (second compound 0.1 µM)
inactive: viability, T/C [1] 94.1% | viability, T/C [13] 86.3% | viability, T/C [2] 70.8% | viability, T/C [14] 21.8% | viability, T/C [3] 90.3% | viability, T/C [17] 98.4% | viability, T/C [4] 80.4% | viability, T/C [18] 25.1% | viability, T/C [5] 122% | viability, T/C [21] 87.5% | viability, T/C [6] 67.1% | viability, T/C [22] 42.8% | viability, T/C [23] 0.2% | viability, T/C [7] 94.2% | viability, T/C [25] 84.7% | viability, T/C [8] 68% | viability, T/C [26] 37.6% | viability, T/C [9] 87.9% | viability, T/C [29] 79.9% | viability, T/C [10] 73.5% | viability, T/C [30] 52.3% | viability, T/C [11] 88.2% | viability, T/C [33] 71.7% | viability, T/C [12] 75.6% | viability, T/C [34] 50.9%
592 nM: IC50 (second compound 1 µM)
557 nM: IC50 (second compound 0.316 µM)

O=c1[nH]cc(F)c(=O)[nH]1 + Cc1[nH]c2ccc(F)cc2c1-c1nc2c3cccnc3c3ncccc3c2[nH]1
inactive: viability, T/C [1] 89.8% | viability, T/C [13] 83.4% | viability, T/C [2] 75.1% | viability, T/C [14] 46.7% | viability, T/C [15] 51.4% | viability, T/C [16] 46.6% | viability, T/C [3] 86.7% | viability, T/C [17] 96.3% | viability, T/C [4] 80.9% | viability, T/C [18] 45.9% | viability, T/C [19] 48.8% | viability, T/C [20] 52.5% | viability, T/C [5] 92.7% | viability, T/C [21] 102% | viability, T/C [6] 76.8% | viability, T/C [22] 55.5% | viability, T/C [23] 46.2% | viability, T/C [24] 54.8% | viability, T/C [7] 81.9% | viability, T/C [25] 104% | viability, T/C [8] 68.5% | viability, T/C [26] 49.8% | viability, T/C [27] 43.2% | viability, T/C [28] 47.2% | viability, T/C [9] 93.7% | viability, T/C [29] 86.5% | viability, T/C [10] 69.5% | viability, T/C [30] 65.1% | viability, T/C [31] 39.7% | viability, T/C [32] 47.2% | viability, T/C [11] 94.1% | viability, T/C [33] 80.5% | viability, T/C [12] 60.5% | viability, T/C [34] 46.8% | viability, T/C [35] 41.6% | viability, T/C [36] 48.5%
842 nM: IC50 (second compound 1 µM)
967 nM: IC50 (second compound 0.1 µM)
2520 nM: IC50 (second compound 3.16 µM)
928 nM: IC50 (second compound 0.0316 µM)
> 10000 nM: IC50 (second compound 0.316 µM)
807 nM: IC50 (second compound 10 µM)

— PubChem BioAssay AID2060509 (Molecular Pharmacology Branch, DTP, NCI, 2025)
